Three compounds from ChEMBL document CHEMBL1799982, “Synthesis, protein kinase inhibitory potencies, and in vitro antiproliferative activities of meridianin derivatives” (J Med Chem, 2011) can be followed below.

Where only a bound is given, the exact number is not on record here.

A short description of assay [1]: Antiproliferative activity against human primary fibroblasts after 48 hrs by resazurin reduction test. In kind it is cell-based. The note with it: Fibroblast.
Assay [2] relates to MCF7. Briefly: Antiproliferative activity against human MCF7 cells after 48 hrs by resazurin reduction test. As to conditions: MCF7, 48 h. Background: Alamar Blue is a resazurin reagent that responds to reducing activity.
The subject of assay [3] is IMR-32. As to the kind of experiment: Antiproliferative activity against human IMR32 cells by MTS reduction assay.
Assay [4] deals with Glycogen synthase kinase-3 (Sus scrofa, UniProt B2LUN4+I6LNT8). Briefly: Inhibition of pig brain GSK-3alpha/beta using YRRAAVPPSPSLSRHSSPHQSpEDEEE as substrate.
Assay [5] can be described thus: Inhibition of pig brain CK1 delta/epsilon using RRKHAAIGpSAYSITA as substrate. Further details: species or system Sus scrofa.
In assay [6] the target is Dual specificity tyrosine-phosphorylation-regulated kinase 1A (Rattus norvegicus, UniProt Q63470). As to the kind of experiment: Inhibition of rat recombinant GST-tagged DYRK1A using myelin protein as substrate and [gamma32]-ATP after 30 mins by scintillation counting.
The target of assay [7] is Cyclin-dependent kinase 5/CDK5 activator 1 (Homo sapiens, UniProt Q00535). Briefly: Inhibition of human recombinant CDK5/p25 using Histone H1 and [gamma32]-ATP after 30 mins by scintillation counting. The assay is classed as protein-complex assay.
Assay [8] relates to DU-145. As to the kind of experiment: Antiproliferative activity against human DU145 cells after 48 hrs by resazurin reduction test. The note with it: DU-145, 48 h. In kind it is functional, cell-based.
Assay [9] has as its system PA-1. Briefly: Antiproliferative activity against human PA1 cells after 48 hrs by resazurin reduction test. In kind it is functional, cell-based. The note with it: PA-1, 48 h.
Assay [10] relates to SH-SY5Y. As to the kind of experiment: Antiproliferative activity against human SH-SY5Y cells by MTS reduction assay. On the technique in general: Formazan colour is commonly taken as a measure of viable cells.
Assay [11] relates to PC-3. Briefly: Antiproliferative activity against human PC3 cells after 48 hrs by resazurin reduction test. As to conditions: PC-3, 48 h.
In assay [12] the target is Dual specificity protein kinase CLK1 (Homo sapiens, UniProt P49759).
Assay [13] concerns HT-22. As to the kind of experiment: Antiproliferative activity against mouse HT22 cells by MTS reduction assay.

Sequence of Cyclin-dependent kinase 5/CDK5 activator 1 (Q00535 whole entry): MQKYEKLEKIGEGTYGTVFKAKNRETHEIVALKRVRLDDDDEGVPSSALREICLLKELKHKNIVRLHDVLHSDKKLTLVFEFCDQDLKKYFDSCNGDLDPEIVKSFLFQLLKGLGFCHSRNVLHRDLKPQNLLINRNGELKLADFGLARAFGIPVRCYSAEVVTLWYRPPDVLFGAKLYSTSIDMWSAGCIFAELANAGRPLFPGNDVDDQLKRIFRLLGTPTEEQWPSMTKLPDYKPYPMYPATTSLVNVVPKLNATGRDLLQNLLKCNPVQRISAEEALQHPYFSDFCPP
Sequence of Cyclin-dependent kinase 5/CDK5 activator 1 (Q15078 whole entry, further chain): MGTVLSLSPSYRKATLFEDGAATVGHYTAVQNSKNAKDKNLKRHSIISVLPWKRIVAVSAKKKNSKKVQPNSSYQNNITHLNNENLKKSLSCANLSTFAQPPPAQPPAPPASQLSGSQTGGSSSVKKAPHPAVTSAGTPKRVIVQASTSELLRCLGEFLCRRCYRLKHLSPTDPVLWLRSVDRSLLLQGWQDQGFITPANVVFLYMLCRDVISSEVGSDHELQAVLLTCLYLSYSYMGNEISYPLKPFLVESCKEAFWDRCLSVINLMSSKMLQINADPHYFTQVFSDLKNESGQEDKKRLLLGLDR
Sequence of Dual specificity protein kinase CLK1 (P49759 whole entry): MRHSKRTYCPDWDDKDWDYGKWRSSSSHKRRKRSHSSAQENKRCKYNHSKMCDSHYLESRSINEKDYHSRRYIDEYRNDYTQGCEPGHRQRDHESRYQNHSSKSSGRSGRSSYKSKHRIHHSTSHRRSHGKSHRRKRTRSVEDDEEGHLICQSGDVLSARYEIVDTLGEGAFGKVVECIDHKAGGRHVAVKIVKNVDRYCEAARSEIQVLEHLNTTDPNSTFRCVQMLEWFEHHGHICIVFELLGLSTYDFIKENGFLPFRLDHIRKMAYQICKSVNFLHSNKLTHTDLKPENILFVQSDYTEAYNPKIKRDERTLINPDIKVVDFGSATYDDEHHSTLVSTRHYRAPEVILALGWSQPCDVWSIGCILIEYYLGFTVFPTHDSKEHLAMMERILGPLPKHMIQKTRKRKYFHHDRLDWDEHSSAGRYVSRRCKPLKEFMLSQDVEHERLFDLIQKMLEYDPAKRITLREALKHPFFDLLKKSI

For `Nc1ncc(I)c(-c2c[nH]c3c(Br)cccc23)n1`, the IC50 amounted to 10 µM in assay [1]; 17 µM in [2]; 7.3 µM in [3]; 4 µM in [4]; 1.6 µM in [5]; 0.039 µM in assay [6]. For the same compound, the IC50 in assay [7] was 2.1 µM; in [8], 4.2 µM; in [9] it was 2 µM; in assay [10], 8 µM; in [11], 15 µM; in [12], 0.042 µM. The IC50 in assay [13] worked out at 12 µM.

For the compound `Nc1ncc(I)c(-c2c[nH]c3cccc([N+](=O)[O-])c23)n1`, the concentration for half-maximal inhibition (IC50) in assay [1] was 5 µM; in [2] it was above 10 µM; in [3], above 10 µM; in assay [4] it was above 10 µM; in assay [5] it was above 10 µM; in assay [6], 9.1 µM. Besides, the IC50 was above 10 µM in [7]; 5.4 µM in assay [8]; 3.3 µM in assay [9]; above 10 µM in [10]; 7 µM in assay [11]; 7.1 µM in [12]. Further, the IC50 in [13] is above 10 µM.

For the compound `Nc1ncc(I)c(-c2c[nH]c3c(N)cccc23)n1`, the IC50 in assay [1] was 10.6 µM; in assay [2] it was 20 µM; in assay [3], 4 µM; in [4] it was 4.4 µM; in [5] it was 1.1 µM; in assay [6] it was 0.11 µM. In addition, the half-inhibitory concentration (IC50) in assay [7] was 0.66 µM; in assay [8], 6.1 µM; in [9], 2.5 µM; in assay [10] it was 9 µM; in assay [11], 14 µM; in assay [12] it was 0.026 µM. In assay [13], inhibition was half-maximal at 12 µM (IC50).

In general, IC50 refers to the concentration at which inhibition is half-maximal.
